From patent publication US11174216B2, “Lipids that increase insulin sensitivity and methods of using the same” (Beth Israel Deaconess Medical Center, Inc., priority 2012, dated 2021)

Tests used:
isolated rat islets = assay: Insulin release studies in rat islets; assay type: cell-based; settings: 25 mM glucose in the media
Procedure: Ins1 cells (FIGS. 31A and 31B) or primary rat islet cells (FIG. 32A and FIG. 32B) were seeded in 24 well-plates [˜10^6 cells/well]. At confluence, cells were incubated with Low Serum [2.5%] and Low Glucose [2.5 mM] media for 12 hours. Next, cells were incubated with KRB buffer for 1 h and stimulated with glucose in the presence of 5-PAHSA (FIGS. 31a and 31B) or 9-PAHSA (FIG. 31B) for 45 min in KRB. At the end of the stimulation, 100 μL of media was collected and 10 μL was used to quantitate the amount of insulin released by ELISA. Treatment Conditions for FIGS. 31A, 31B and 32B were: • 5-PAHSA or 9-PAHSA [Stock]=20.0 mM [10.76 mg/mL Methanol] • A] 1 uM=0.3 uL/6 mL [Amount of methanol/mL=0.05 uL] • B] 5 uM=1.5 uL/6 mL [Amount of methanol/mL=0.25 uL] • C] 10 uM=3.0 uL/6 mL [Amount of methanol/mL=0.50 uL] • D] 20 uM=6.0 uL/6 mL [Amount of methanol/mL=1.00 uL] […]
Isolated rat islets were cultured overnight in RPMI 1640 medium containing 2.5 mM glucose and 2.5% fetal bovine serum supplemented with 100 IU/ml penicillin and 100 IU/ml streptomycin, 1 mM sodium pyruvate, and 10 mM HEPES (pH 7.4). […] At the end of the stimulation supernatant was collected and insulin released into the medium was quantified by ELISA as per manufacturer's protocol. The islets were lysed and protein content was measured and the amount of insulin released into the media was quantitated as ng/mL/μg of protein.

[1] = tested on: FAHFA hydrolysis activity in liver lysate
[2] = tested on: FAHFA hydrolysis activity in pancreas membrane lysate; assay: FAHFA hydrolysis activity assay, pancreas membrane lysate; settings: 1 mg/ml protein, 100 uM 9-PAHSA, 30 min, room temperature
[3] = tested on: carboxyl ester lipase (CEL)
purified CEL = biological target: T1, purified CEL (Homo sapiens, UniProt P19835); assay: Hydrolysis of 9-PAHSA by purified CEL; assay type: biochemical; settings: micellar concentrations of NaTC
T1 construct: purchased R&D Systems
T1 sequence (P19835 21-753): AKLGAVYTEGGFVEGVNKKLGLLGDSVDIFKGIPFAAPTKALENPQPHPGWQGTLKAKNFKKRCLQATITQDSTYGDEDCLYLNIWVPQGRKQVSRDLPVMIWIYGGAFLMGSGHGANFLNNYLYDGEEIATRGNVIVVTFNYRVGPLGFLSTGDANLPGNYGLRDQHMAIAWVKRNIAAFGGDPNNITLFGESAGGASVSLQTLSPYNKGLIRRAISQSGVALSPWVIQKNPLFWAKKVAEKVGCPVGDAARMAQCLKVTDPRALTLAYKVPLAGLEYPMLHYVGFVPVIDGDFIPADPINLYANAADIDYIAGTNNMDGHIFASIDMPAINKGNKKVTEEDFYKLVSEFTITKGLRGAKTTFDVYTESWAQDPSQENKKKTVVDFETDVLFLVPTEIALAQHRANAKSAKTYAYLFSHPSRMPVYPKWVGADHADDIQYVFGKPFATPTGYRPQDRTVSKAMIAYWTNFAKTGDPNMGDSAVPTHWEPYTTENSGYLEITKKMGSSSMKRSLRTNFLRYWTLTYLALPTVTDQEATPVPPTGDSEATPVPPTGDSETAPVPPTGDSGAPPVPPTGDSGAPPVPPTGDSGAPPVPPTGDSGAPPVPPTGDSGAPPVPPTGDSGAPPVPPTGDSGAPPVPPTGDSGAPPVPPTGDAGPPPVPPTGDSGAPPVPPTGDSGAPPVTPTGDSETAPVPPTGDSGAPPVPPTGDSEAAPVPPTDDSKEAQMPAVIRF
Text: To confirm the identification of CEL as a FAHFA hydrolase, a small amount of purified enzyme (available commercially from R&D Systems) was used.

| SMILES | glucose-stimulated insulin secretion (isolated rat islets) | hydrolysis of 9-PAHSA to 9-HSA [1] | FAHFA hydrolysis activity, pancreas membrane versus liver membrane [2] [fold] | hydrolysis by HEK293T lysates transfected with CEL, AADACL1 or CES3 [3] | hydrolysis, measured by 9-HSA production (purified CEL) |
| --- | --- | --- | --- | --- | --- |
| CCCCCCCCCCCCCCCC(=O)OC(CCCCCCCCCCCCC)CCCC(=O)O (centres unmarked) [5-PAHSA] | potentiates glucose-stimulated insulin secretion | – | – | – | – |
| CCCCCCCCCCCCCCCC(=O)OC(CCCCCCCCC)CCCCCCCC(=O)O (centres unmarked) [9-PAHSA, palmitoyl-9-hydroxystearic acid] | – | Substantial 9-HSA production | ~10 | only CEL-transfected cell lysate was able to hydrolyze FAHFA above the level of background hydrolysis activity | substantial hydrolysis |
